Measurements published in patent publication US20220016241A1, “COMPOSITIONS AND METHODS FOR REDUCING ANTIGEN-SPECIFIC IMMUNOGENICITY” (The Research Foundation for The State University of New York, priority 2013, published 2022).

Assays:
[1] = test system: anti-GAA peptide antibody titers; assay: Effect of OPLS and PS-liposomes on GAA peptide immunogenicity; type: in vivo, mouse; settings: 10 μg peptide, 4 weekly s.c.; OPLS 5 mg or PS/PC 1:10,000 protein:lipid
Experimental: Materials and Methods. GAA peptide Source: This GAA peptide was produced by American Peptide Company (Sunnyvale, Calif.). They produced for us a peptide […] containing amino acids 339-352 of the full length GAA sequence, YIFLGPEPKSVVQ (SEQ ID NO:1). OPLS Source: Sigma-Aldrich (St. Louis, Mo.) Peptide concentration dose: 10 μg/injection. Free GAA peptide (n=4), PS-GAA peptide (n=4), and OPLS-GAA peptide (n=5). Each mouse received 4 weekly subcutaneous (s.c.) injections near the base of the tail of 100 μl/injection of their treatment. Two weeks after the last injection, a retro-orbital blood sample was taken from each mouse. Samples were stored at −80° C. until analysis. These samples were then analyzed for anti-GAA peptide Ab titers. Anti-GAA antibody titers were measured as follows: ELISA plate (maxisorp, NUNC) was coated with 100 μl of 10 μg/ml of sterile rhGAA in sodium carbonate-bicarbonate buffer pH=9.6. The plate was incubated overnight at 4° C. The plate was washed six times with PBS containing 0.05% Tween 20 (PBS-T, 250 μl/well) using an automated plate washer. […] The reaction was stopped with 2 N sulfuric acid and read immediately at 450 nm using a micro-plate reader. The titer values are quantitated using a statistical endpoint method as described by Frey et al. Control plasma samples were run on each plate. […]

[2] = biological target: T1, GAA peptide (Homo sapiens, UniProt P10253); assay: Binding of OPLS to GAA peptide by ultraviolet/visible spectroscopy
T1 construct: purchased American Peptide Company (Sunnyvale, Calif.); host or cells: chemical synthesis
Text: Instead of using fluorescence to detect binding, ultraviolet/visible spectroscopy was used.

## N[C@@H](COP(=O)(O)O)C(=O)O [OPLS, O-Phospho-L-Serine]
[1]
  Anti-GAA peptide antibody titers vs GAA peptide alone: lower
[2]
  Binding of GAA peptide to OPLS: did not bind
